What was measured:
[1] = test system: Mef Efflux Pump of Streptococcus pneumoniae 3514 and Streptococcus pyogenes 26-00; assay: Two plate diffusion assay for macrolide (Mef) efflux pump inhibitors, azithromycin plate versus control plate; assay type: cell-based; settings: zone of inhibition in antibiotic plate (method: azithromycin 0.5 mcg/ml; footnote: levofloxacin) minus water control plate; strain not given
[2] = test system: Staphylococcus aureus 1199 B NorA+; assay type: cell-based; settings: combination with ciprofloxacin, broth microdilution checkerboard, 35° C. 20 hours; FIC index ≦0.5 synergistic, 0.5–2.0 additive, >2.0 antagonistic
Source text: Testing method for inhibition of the efflux pump of Staphylococcus aureus 1199B NorA^+
[…]. Victor Lorian, Md., Fourth edition 1996, pp 333–338).
In short, the assay involves broth microdilution method performed as recommended by the National Committee for Clinical Laboratory Standards (NCCLS) 1997 (Methods for Dilution of Antimicrobial Susceptibility Tests for Bacteria that Grow Aerobically, Fourth edition; Approved Standard, NCCLS document M7-A4, vol. 17, No. 2). The test organism used for the assay is Staphylococcus aureus 1199 B NorA^+.
[…]. Stock solutions of the efflux pump inhibitors tested are prepared in dimethyl sulfoxide (DMSO) at a final concentration of 5 mg/ml. Stock solutions are further diluted in Mueller Hinton Broth as per the need of the assay. Ciprofloxacin is dissolved in water.
The checkerboard assay is performed in microtiter plates. […] The efflux pump inhibitor is diluted in the Y-axis, each row containing an equal concentration of efflux pump inhibitor. The result of these manipulations is that each well of the microtiter plate contains a unique combination of concentrations of the two agents. Bacterial inoculum is added at 5×10^5 CFU/ml. Microtiter plates are incubated at 35° C. for 20 hours. Reading is done by visibly noting turbidity and confirmed using a microtiter plate reader (Molecular Devices). The FIC index is calculated as
(A) is the concentration of the experimental efflux pump inhibitor in the well that is the lowest inhibitory concentration in the Y-axis. (MICA) is the MIC of Staphylococcus aureus to experimental efflux pump inhibitor alone. FICA is the fractional inhibitory concentration of an experimental efflux pump inhibitor. […] (Antimicrobial Combination In Antibiotics in Laboratory Medicine, Ed. Victor Lorian, Md., Fourth edition 1996, pp 333–338).

SMILES	Difference in Zone diameter Z1 (mm) [1] [mm]	FIC INDEX [2]
NC1CCN(c2nc3c(cc2F)c(=O)c(C(=O)O)cn3-c2ccc(F)cc2F)C1 (stereo not drawn) [Example 22 (Mef)]	8	
COc1c(N2CCC(NC(=O)[C@H](C)NC(=O)OC(C)(C)C)C(C)(C)C2)c(F)cc2c(=O)c(C(=O)O)cn(C3CC3)c12.Cl (stereo partly drawn) [Example 7 (Mef), 1-Cyclopropyl-6-fluoro-8-methoxy-1,4-dihydro-7-{4′-N-(t-butoxycarbonyl-L-alanyl)-amino-3′,3′-dimethylpiperidin-1-yl}-4-oxo-quinoline-3-carboxylic acid hydrochloride]	7	
Nc1c(F)c(C2(N)C3CN(Cc4ccccc4)CC32)c(F)c2c1c(=O)c(C(=O)O)cn2C1CC1 (stereo not drawn) [Example 15 (Mef), 5-Amino-1-cyclopropyl-6,8-difluoro-1,4-dihydro-7-{(1∝,5∝,6∝)-6-amino-N-benzyl-3-azabicyclo[3.1.0]hex-6-yl}-4-oxo-quinoline-3-carboxylic acid]	14	
CCn1cc(C(=O)O)c(=O)c2cc(F)c(N3CCc4ccccc4C3)cc21 [1 (NorA), 1-Ethyl-6-fluoro-1,4-dihydro-7-(1′,2′,3′,4′-tetrahydroisoquinolin-2-yl)-4-oxo-quinoline-3-carboxylic acid]		0.314
C[C@H]1CCc2c(N3CCC(C(N)=O)CC3)c(F)cc3c(=O)c(C(=O)O)cn1c23 [Example 53 (NorA), (S)-(−)-9-Fluoro-6,7-dihydro-8-(4′-carboxamidopineridin-1-yl)-5-methyl-1-oxo-1H,5H-benzo[i,j]quinolizine-2-carboxylic acid]		0.192
CCOC(=O)c1cc(F)c(NC2CCN(c3c(F)c(N)c4c(=O)c(C(=O)O)cn(C5CC5)c4c3F)CC2)c(F)c1F [Bis compound 10, N-1-{7-(1-cyclopropyl-6,8-difluoro-5-amino-1,4-dihydro-4-oxo-quinolone-3-carboxylic acid)}-N-4-amino-{ethyl 2,3,6-trifluorophenyl-4-carboxylate}-piperidine]		0.304
COc1c(N2CC(C)C(N)C(C)C2)c(F)c(N)c2c(=O)c(C(=O)O)cn(C3CC3)c12 (stereo not drawn) [Example 24 (NorA), 5-Amino-1-cyclopropyl-6-fluoro-8-methoxy-1,4-dihydro-7-(cis-4′-amino-3′,5′-dimethylpiperidin-1-yl)-4-oxo-quinoline-3-carboxylic acid]		0.314
Nc1c(F)c(NC2CCN(c3nc4c(cc3F)c(=O)c(C(=O)O)cn4C3CC3)C2)c(F)c2c1c(=O)c(C(=O)O)cn2C1CC1 (stereo not drawn) [Bis compound 3]		0.314
CCOC(=O)NC1CCN(c2nc3c(cc2F)c(=O)c(C(=O)O)cn3C2CC2)C1 (stereo not drawn) [Example 48 (NorA), 1-Cyclopropyl-6-fluoro-1,4-dihydro-7-{(3′-aminoethoxycarbonyl)pyrrolidin-3-yl}-4-oxo-naphthyridine-3-carboxylic acid]		(3-ethoxycarbonylamino)pyrrolidin-3-yl 0.314
CC1CC(C)CN(c2cc3c(cc2F)c(=O)c(C(=O)O)cn3C2CC2)C1 (stereo not drawn) [Example 13 (NorA), 1-Cyclopropyl-6-fluoro-1,4-dihydro-7-(3′,5′-dimethylpiperidin-1-yl)-4-oxo-quinoline-3-carboxylic acid]		0.314
CCn1cc(C(=O)O)c(=O)c2c(N)c(F)c(N3CCC(N)CC3)c(F)c21 [Example 6 (NorA), 5-Amino-1-ethyl-6,8-difluoro-1,4-dihydro-7-(4′-aminopiperidin-1-yl)-4-oxo-quinoline-3-carboxylic acid]		0.314
Cc1c(F)c(N2CCNC(C)(C)C2)cc2c1c(=O)c(C(=O)O)cn2C1CC1 [Example 18 (NorA), 1-Cyclopropyl-6-fluoro-1,4-dihydro-5-methyl-7-(3′,3′-dimethylpiperazin-1-yl)-4-oxo-quinoline-3-carboxylic acid]		0.314

Reference: US7098219B2, “Inhibitors of cellular efflux pumps of microbes” (Wockhart Limited, priority 2000, dated 2006)
